Reference: PubChem BioAssay AID1963828 (Molecular Pharmacology Branch, DTP, NCI, 2024)

Tested on: 991263-137-R1-J2-PDC complex spheroid viability
Experiment: Anticancer human tumor 991263-137-R1-J2-PDC patient-derived colon adenocarcinoma cell line growth inhibition [POLQ]
Details: for IC50: curve of first compound; for viability, T/C: stronger effect = lower value
Method in brief: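 Complex spheroid viability model combining PDC tumour cells with endothelial (HUVEC) and MSC stromal cells. Novobiocin, ART-558 or RP6685 were tested singly and in combination with standard and investigational anticancer drugs. Each was titrated in half-log steps from near clinical Cmax, or from 10 microM where Cmax was unknown.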

[1] = second compound 0.0316 µM, first compound 0.0316 µM
[2] = second compound 0.0316 µM, first compound 0.1 µM
[3] = second compound 0.0316 µM, first compound 0.316 µM
[4] = second compound 0.0316 µM, first compound 1 µM
[5] = second compound 0.0316 µM, first compound 3.16 µM
[6] = second compound 0.0316 µM, first compound 10 µM
[7] = second compound 0.1 µM, first compound 0.0316 µM
[8] = second compound 0.1 µM, first compound 0.1 µM
[9] = second compound 0.1 µM, first compound 0.316 µM
[10] = second compound 0.1 µM, first compound 1 µM
[11] = second compound 0.1 µM, first compound 3.16 µM
[12] = second compound 0.1 µM, first compound 10 µM
[13] = second compound 0.316 µM, first compound 0.0316 µM
[14] = second compound 0.316 µM, first compound 0.1 µM
[15] = second compound 0.316 µM, first compound 0.316 µM
[16] = second compound 0.316 µM, first compound 1 µM
[17] = second compound 0.316 µM, first compound 3.16 µM
[18] = second compound 0.316 µM, first compound 10 µM
[19] = second compound 1 µM, first compound 0.0316 µM
[20] = second compound 1 µM, first compound 0.1 µM
[21] = second compound 1 µM, first compound 0.316 µM
[22] = second compound 1 µM, first compound 1 µM
[23] = second compound 1 µM, first compound 3.16 µM
[24] = second compound 1 µM, first compound 10 µM
[25] = second compound 3.16 µM, first compound 0.0316 µM
[26] = second compound 3.16 µM, first compound 0.1 µM
[27] = second compound 3.16 µM, first compound 0.316 µM
[28] = second compound 3.16 µM, first compound 1 µM
[29] = second compound 3.16 µM, first compound 3.16 µM
[30] = second compound 3.16 µM, first compound 10 µM
[31] = second compound 10 µM, first compound 0.0316 µM
[32] = second compound 10 µM, first compound 0.1 µM
[33] = second compound 10 µM, first compound 0.316 µM
[34] = second compound 10 µM, first compound 1 µM
[35] = second compound 10 µM, first compound 3.16 µM
[36] = second compound 10 µM, first compound 10 µM
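Further: spheroids exposed to compounds for 7 days before readout.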
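Wherever viability, T/C is given: 100% = DMSO vehicle control viability.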

COc1cc(C2c3cc4c(cc3C(OC3OC5COC(C)OC5C(O)C3O)C3COC(=O)C23)OCO4)cc(OC)c1O (stereo unspecified) + Cc1cccc(N(C)C(=O)C2C(O)CCN2c2nc(C)cc(C(F)(F)F)c2C#N)c1
IC50 (second compound 0.0316 µM): > 10 µM
IC50 (second compound 0.1 µM): > 10 µM
IC50 (second compound 0.316 µM): > 10 µM
IC50 (second compound 1 µM): > 10 µM
IC50 (second compound 3.16 µM): > 10 µM
IC50 (second compound 10 µM): > 10 µM
viability, T/C [1]: 115%
viability, T/C [2]: 99%
viability, T/C [3]: 87.1%
viability, T/C [4]: 90.5%
viability, T/C [5]: 102%
viability, T/C [6]: 84.7%
viability, T/C [7]: 95.2%
viability, T/C [8]: 103%
viability, T/C [9]: 75.8%
viability, T/C [10]: 98.1%
viability, T/C [11]: 86.3%
viability, T/C [12]: 73.1%
viability, T/C [13]: 104%
viability, T/C [14]: 102%
viability, T/C [15]: 109%
viability, T/C [16]: 95.8%
viability, T/C [17]: 94.4%
viability, T/C [18]: 87.2%
viability, T/C [19]: 104%
viability, T/C [20]: 109%
viability, T/C [21]: 105%
viability, T/C [22]: 106%
viability, T/C [23]: 84.8%
viability, T/C [24]: 85.7%
viability, T/C [25]: 97.2%
viability, T/C [26]: 107%
viability, T/C [27]: 92.3%
viability, T/C [28]: 99.2%
viability, T/C [29]: 102%
viability, T/C [30]: 76.8%
viability, T/C [31]: 117%
viability, T/C [32]: 96.3%
viability, T/C [33]: 73.6%
viability, T/C [34]: 89.1%
viability, T/C [35]: 84.9%
viability, T/C [36]: 71.1%

COc1cccc2c1C(=O)c1c(O)c3c(c(O)c1C2=O)CC(O)(C(=O)CO)CC3OC1CC(N)C(O)C(C)O1 (stereo unspecified) + Cc1cccc(N(C)C(=O)C2C(O)CCN2c2nc(C)cc(C(F)(F)F)c2C#N)c1
IC50 (second compound 0.0316 µM): 1.41 µM
IC50 (second compound 0.1 µM): 1.85 µM
IC50 (second compound 0.316 µM): 1.74 µM
IC50 (second compound 1 µM): 0.976 µM
IC50 (second compound 3.16 µM): 1.01 µM
IC50 (second compound 10 µM): 0.79 µM
viability, T/C [1]: 90.1%
viability, T/C [2]: 99.4%
viability, T/C [3]: 79.1%
viability, T/C [4]: 55.9%
viability, T/C [5]: 38.5%
viability, T/C [6]: 35.3%
viability, T/C [7]: 105%
viability, T/C [8]: 91.9%
viability, T/C [9]: 92.2%
viability, T/C [10]: 56.7%
viability, T/C [11]: 46.2%
viability, T/C [12]: 33.8%
viability, T/C [13]: 114%
viability, T/C [14]: 99.4%
viability, T/C [15]: 94.8%
viability, T/C [16]: 57.2%
viability, T/C [17]: 41.7%
viability, T/C [18]: 34.1%
viability, T/C [19]: 92.8%
viability, T/C [20]: 95.4%
viability, T/C [21]: 102%
viability, T/C [22]: 48.9%
viability, T/C [23]: 44.3%
viability, T/C [24]: 27.6%
viability, T/C [25]: 99.6%
viability, T/C [26]: 107%
viability, T/C [27]: 74.2%
viability, T/C [28]: 51.8%
viability, T/C [29]: 36.4%
viability, T/C [30]: 26.9%
viability, T/C [31]: 97.1%
viability, T/C [32]: 78.3%
viability, T/C [33]: 68.9%
viability, T/C [34]: 40.8%
viability, T/C [35]: 33.7%
viability, T/C [36]: 15.7%

Nc1ccn(C2OC(CO)C(O)C2(F)F)c(=O)n1 (stereo unspecified) + Cc1cccc(N(C)C(=O)C2C(O)CCN2c2nc(C)cc(C(F)(F)F)c2C#N)c1
IC50 (second compound 0.0316 µM): 0.873 µM
IC50 (second compound 0.1 µM): 1.31 µM
IC50 (second compound 0.316 µM): 1.15 µM
IC50 (second compound 1 µM): 1.91 µM
IC50 (second compound 3.16 µM): 3.04 µM
IC50 (second compound 10 µM): 2.03 µM
viability, T/C [1]: 85.6%
viability, T/C [2]: 74.6%
viability, T/C [3]: 57.2%
viability, T/C [4]: 48%
viability, T/C [5]: 52.4%
viability, T/C [6]: 42.4%
viability, T/C [7]: 99.4%
viability, T/C [8]: 66.4%
viability, T/C [9]: 60.6%
viability, T/C [10]: 62.4%
viability, T/C [11]: 40.3%
viability, T/C [12]: 41.5%
viability, T/C [13]: 82.6%
viability, T/C [14]: 70.5%
viability, T/C [15]: 54.9%
viability, T/C [16]: 52.6%
viability, T/C [17]: 48.4%
viability, T/C [18]: 38.5%
viability, T/C [19]: 75.6%
viability, T/C [20]: 63.8%
viability, T/C [21]: 53.1%
viability, T/C [22]: 50%
viability, T/C [23]: 53.6%
viability, T/C [24]: 46%
viability, T/C [25]: 69.2%
viability, T/C [26]: 64.2%
viability, T/C [27]: 54.7%
viability, T/C [28]: 54%
viability, T/C [29]: 53.2%
viability, T/C [30]: 45%
viability, T/C [31]: 80.2%
viability, T/C [32]: 70.3%
viability, T/C [33]: 63.5%
viability, T/C [34]: 49.6%
viability, T/C [35]: 51.8%
viability, T/C [36]: 41.5%
